Structures are written as SMILES.

For the experiment, the system named is Streptococcus pyogenes (ATCC# 97-03 14289). As to the kind of experiment: Anti-microbial screen (growth inhibition, OD 570 nm). Type of experiment: cell-based. The following applies: ATCC97, compounds at 170 μg/ml, Todd Hewitt Broth, read at 4 hrs. How it is done: Streptococcus pyogenes (ATCC# 97-03 14289) were grown in Todd Hewitt Broth (THB) (Difco Laboratories #0492-17-6) overnight until they reached an optical density of (OD=0.636@ 570 nm) by reading 0.1 ml in a 96 well microtiter plate in a Molecular Devices Thermomax. This preparation was kept frozen as stocks in 30% v/v glycerol in 1.5 ml aliquots at −70 C° until used. Prior to screening, 1.5 ml aliquots were thawed and diluted into 50 ml THB. 200 μl of this dilution was added to 92 wells of microtiter plate. To three wells THB (200 μl) was added to serve as a blank and a sterility control. Test compounds in DMSO and appropriate concentrations of DMSO were added to Growth/Solvent Controls at 0 time. Plates were read at 0 time at 570 nm in the Molecular Devices plate reader to obtain compounds correction factors for insoluble or colored compounds. Plates were read again at 4 hrs.
Compounds were assayed at a concentration of 170 μg/ml. Percent inhibition for each compound was calculated using the following formulae:
Color correct=(O.D. 0 hr−Blank 0 hr)−(Solvent Control 0 hr−Blank 0 hr)
% Inhibition=100−(O.D. test compound 4 hr−Blank 4 hr−color correct) divided by (O.D. growth/solvent control 4 hr−Blank 4 hr)
In the case of `CC(=O)NCCNc1ccc2c(c1)-c1nc3cc(Br)ccc3n1C(CCCNC(=N)N)C(=O)N2` (centres unmarked) [6000#60738], the inhibition – broadly, the relative decrease from the control value, in per cent – at 170 µg/mL came to 96.5%.

On to `CC(=O)N1CCN(c2ccc3c(c2)-c2nc4cc(Br)ccc4n2C(CCCNC(=N)N)C(=O)N3)CC1` (centres unmarked) [6000#60754], for which the inhibition at 170 µg/mL came out at 97.3%. To `CCOCCNc1ccc2c(c1)-c1nc3cc(Br)ccc3n1C(CCCNC(=N)N)C(=O)N2` (centres unmarked) [6000#60778] belongs 98.8%; to `N=C(N)NCCCC1C(=O)Nc2ccc(N3CCOCC3)cc2-c2nc3cc(Br)ccc3n21` (centres unmarked) [6000#60794], 97.3%; to `CCOC(=O)N1CCN(c2ccc3c(c2)-c2nc4ccccc4n2C(CCCNC(=N)N)C(=O)N3)CC1` (centres unmarked) [6000#60826], 95%. The result for `Cn1cnnc1Sc1ccc2c(c1)-c1nc3ccccc3n1C(CCCNC(=N)N)C(=O)N2` (centres unmarked) [6000#60857] reads 95.3%; that for `N=C(N)NCCCC1C(=O)Nc2ccc(N3CCSCC3)cc2-c2nc3ccccc3n21` (centres unmarked) [6000#60875], 101%; that for `CCN(CC)c1ccc2c(c1)-c1nc3ccccc3n1C(CCCNC(=N)N)C(=O)N2` (centres unmarked) [6000#60879], 97.4%.

The record behind these values is patent US6515122B1, “Tetracyclic benzimidazole derivatives and combinatorial libraries thereof” (Lion Bioscience AG, priority 1999, dated 2003).
